According to PubChem BioAssay AID256 (DTP/NCI, 2004):
“And” between values parts separate entries of the source, which are not always exact repeats. Equal values may be shown once. Toxic doses and inconclusive results are not listed. How the source made its calls: active means survival T/C of 150% or more; inactive means T/C below 125% in these data.

Tested on: CD2F1 mice, L1210 leukemia ip, survival T/C
Experiment: NCI In Vivo Anticancer Drug Screen. Data for tumor model L1210 Leukemia (intraperitoneal) in CD2F1 (CDF1) mice
Settings: endpoint: mean survival time, higher = longer survival
Outline: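 Antitumor effect is scored in animals hosting a serially transplanted tumor. Values compare compound-dosed animals against vehicle-only controls as a simple quotient.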

[1] = dose: 100.0 mg/kg/injection, schedule: Q01DX001 (ip), vehicle: saline
[2] = dose: 200.0 mg/kg/injection, schedule: Q01DX001 (ip), vehicle: saline
[3] = dose: 400.0 mg/kg/injection, schedule: Q01DX001 (ip), vehicle: saline
[4] = dose: 100.0 mg/kg/injection, schedule: Q04DX003 (ip), vehicle: saline
[5] = dose: 200.0 mg/kg/injection, schedule: Q04DX003 (ip), vehicle: saline
[6] = dose: 400.0 mg/kg/injection, schedule: Q04DX003 (ip), vehicle: saline
[7] = dose: 100.0 mg/kg/injection, schedule: Q01DX001 (ip), vehicle: saline with Tween-80
[8] = dose: 200.0 mg/kg/injection, schedule: Q01DX001 (ip), vehicle: saline with Tween-80
[9] = dose: 100.0 mg/kg/injection, schedule: Q01DX009 (ip), vehicle: saline with Tween-80
[10] = dose: 200.0 mg/kg/injection, schedule: Q01DX009 (ip), vehicle: saline with Tween-80
[11] = dose: 400.0 mg/kg/injection, schedule: Q01DX009 (ip), vehicle: saline with Tween-80
[12] = dose: 100.0 mg/kg/injection, schedule: Q04DX002 (ip), vehicle: saline with Tween-80
[13] = dose: 200.0 mg/kg/injection, schedule: Q04DX002 (ip), vehicle: saline with Tween-80
[14] = dose: 400.0 mg/kg/injection, schedule: Q04DX002 (ip), vehicle: saline with Tween-80
[15] = dose: 400.0 mg/kg/injection, schedule: Q01DX001 (ip), vehicle: saline with Tween-80
[16] = dose: 100.0 mg/kg/injection, schedule: Q04DX003 (ip), vehicle: saline with Tween-80
[17] = dose: 200.0 mg/kg/injection, schedule: Q04DX003 (ip), vehicle: saline with Tween-80
[18] = dose: 400.0 mg/kg/injection, schedule: Q04DX003 (ip), vehicle: saline with Tween-80
[19] = dose: 25.0 mg/kg/injection, schedule: Q01DX009 (ip), vehicle: saline with Tween-80

Measured: T/C

COC(=O)N(C)c1nc(-c2ccccc2)nc2nonc12
inactive: dose: 12.5 mg/kg/injection, schedule: Q01DX005 (ip), vehicle: saline with Tween-80 100 % of control | dose: 25.0 mg/kg/injection, schedule: Q01DX005 (ip), vehicle: saline with Tween-80 96 % of control | dose: 50.0 mg/kg/injection, schedule: Q01DX005 (ip), vehicle: saline with Tween-80 94 % of control | dose: 100.0 mg/kg/injection, schedule: Q01DX005 (ip), vehicle: saline with Tween-80 90 % of control

O=C1C(O)=C(c2ccccc2)C(=O)C(O)=C1c1ccccc1
inactive: dose: 3.12 mg/kg/injection, schedule: Q01DX009 (ip), vehicle: saline 96 % of control | dose: 6.25 mg/kg/injection, schedule: Q01DX009 (ip), vehicle: saline 95 % of control | dose: 12.5 mg/kg/injection, schedule: Q01DX009 (ip), vehicle: saline 97 % of control | dose: 25.0 mg/kg/injection, schedule: Q01DX009 (ip), vehicle: saline 101 % of control | dose: 50.0 mg/kg/injection, schedule: Q01DX009 (ip), vehicle: saline 108 % of control

Nc1cc(N)c2[nH]cnc2n1
inactive: dose: 100.0 mg/kg/injection, schedule: Q01DX001 (ip), vehicle: other 104 % of control | dose: 200.0 mg/kg/injection, schedule: Q01DX001 (ip), vehicle: other 97 % of control | dose: 400.0 mg/kg/injection, schedule: Q01DX001 (ip), vehicle: other 98 % of control

S=c1nc[nH]c2nc(-c3ccccc3)[nH]c12
inactive: dose: 12.5 mg/kg/injection, schedule: Q01DX005 (ip), vehicle: other 98 % of control | dose: 25.0 mg/kg/injection, schedule: Q01DX005 (ip), vehicle: other 96 % of control | dose: 50.0 mg/kg/injection, schedule: Q01DX005 (ip), vehicle: other 102 % of control | dose: 100.0 mg/kg/injection, schedule: Q01DX005 (ip), vehicle: other 98 % of control | dose: 200.0 mg/kg/injection, schedule: Q01DX005 (ip), vehicle: other 93 % of control

CC1=CSC2=NC(=O)CCN12
inactive: [1] 93 % of control | [2] 100 % of control | [3] 90 % of control

CCCCOCC(C)O (stereo unspecified)
inactive: dose: 100.0 mg/kg/injection, schedule: Q01DX009 (ip), vehicle: saline 97 % of control | dose: 200.0 mg/kg/injection, schedule: Q01DX009 (ip), vehicle: saline 101 % of control | dose: 400.0 mg/kg/injection, schedule: Q01DX009 (ip), vehicle: saline 100 % of control

CCCCCC(Br)C(Br)CC(Br)C(Br)CCCCCCCC(=O)O (stereo unspecified)
inactive: dose: 100.0 mg/kg/injection, schedule: Q01DX009 (ip), vehicle: acetone 95 % of control | dose: 200.0 mg/kg/injection, schedule: Q01DX009 (ip), vehicle: acetone 92 % of control | dose: 400.0 mg/kg/injection, schedule: Q01DX009 (ip), vehicle: acetone 90 % of control

Cc1cc(=O)[nH]c(-n2nc(N)nc2N)n1
inactive: dose: 75.0 mg/kg/injection, schedule: Q01DX001 (ip), vehicle: saline 107 % of control | dose: 150.0 mg/kg/injection, schedule: Q01DX001 (ip), vehicle: saline 101 % of control | dose: 300.0 mg/kg/injection, schedule: Q01DX001 (ip), vehicle: saline 101 % of control

CCOC(=O)c1ccc(NS(=O)c2ccccc2)cc1 (stereo unspecified)
inactive: [1] 95 % of control | [4] 109 % of control | [2] 95 % of control | [5] 108 % of control | [3] 94 % of control | [6] 103 % of control

CN(C)N=Nc1cccc(NC(N)=O)c1
inactive: dose: 19.75 mg/kg/injection, schedule: Q01DX009 (ip), vehicle: Klucel (hydroxypropylcellulose) (HPC) 114 % of control | dose: 79.0 mg/kg/injection, schedule: Q01DX009 (ip), vehicle: Klucel (hydroxypropylcellulose) (HPC) 87 % of control

O=C1N(C2CCCCC2)CC2C(c3cccnc3)NNC12O (stereo unspecified)
inactive: [7] 97 % of control | [8] 87 % of control

O.[Cl][Pt].[NH-]CC[S-]
inactive: dose: 12.5 mg/kg/injection, schedule: Q04DX003 (ip), vehicle: distilled water + Tween-80 90 % of control | dose: 25.0 mg/kg/injection, schedule: Q04DX003 (ip), vehicle: distilled water + Tween-80 102 % of control | dose: 50.0 mg/kg/injection, schedule: Q04DX003 (ip), vehicle: distilled water + Tween-80 95 % of control | dose: 100.0 mg/kg/injection, schedule: Q04DX003 (ip), vehicle: distilled water + Tween-80 100 % of control

Cc1c(C)c2c(c(C)c1O)CC(CC(=O)CO)CO2 (stereo unspecified)
inactive: [9] 93 % of control | [10] 100 % of control | [11] 93 % of control

N#CC(N)=O
inactive: dose: 100.0 mg/kg/injection, schedule: Q04DX002 (ip), vehicle: saline 97 % of control | dose: 200.0 mg/kg/injection, schedule: Q04DX002 (ip), vehicle: saline 91 % of control | dose: 400.0 mg/kg/injection, schedule: Q04DX002 (ip), vehicle: saline 94 % of control

Cc1nc(C)c(C#N)c(=O)[nH]1
inactive: [12] 97 % of control | [13] 97 % of control | [14] 97 % of control

CC(=O)Nc1c(N=Cc2ccc([N+](=O)[O-])cc2)cc2c3c(cccc13)CC2
inactive: dose: 50.0 mg/kg/injection, schedule: Q04DX003 (ip), vehicle: Klucel (hydroxypropylcellulose) (HPC) 91 % of control | dose: 100.0 mg/kg/injection, schedule: Q04DX003 (ip), vehicle: Klucel (hydroxypropylcellulose) (HPC) 96 % of control | dose: 200.0 mg/kg/injection, schedule: Q04DX003 (ip), vehicle: Klucel (hydroxypropylcellulose) (HPC) 94 % of control

CC1Cc2c(N)cccc2C1=O (stereo unspecified)
inactive: [7] 98 % of control | [8] 87 % of control | [15] 91 % of control

CC(C)OC(=O)COc1ccc(F)cc1F
inactive: [12] 92 % of control | [13] 95 % of control | [14] 89 % of control

O=S(=O)(O)SCc1ccccc1CSS(=O)(=O)O
inactive: [4] 96 % of control | [5] 101 % of control | [6] 108 % of control

CC(C)CCC(C)C1CCC2C3CCC4CC(=O)CC4(C)C3CCC12C (stereo unspecified)
inactive: [16] 100 % of control | [17] 94 % of control | [18] 97 % of control

O=C(Nc1ccc(C2=NCCN2)cc1)c1cc(Cl)cc(C(=O)Nc2ccc(C3=NCCN3)cc2)c1
inactive: dose: 62.5 mg/kg/injection, schedule: Q01DX009 (ip), vehicle: saline 101 % of control and 104 % of control | dose: 125.0 mg/kg/injection, schedule: Q01DX009 (ip), vehicle: saline 101 % of control and 103 % of control | dose: 250.0 mg/kg/injection, schedule: Q01DX009 (ip), vehicle: saline 107 % of control and 108 % of control | dose: 500.0 mg/kg/injection, schedule: Q01DX009 (ip), vehicle: saline 115 % of control and 110 % of control

O=S(=O)(F)c1ccc(N=C=S)cc1
inactive: dose: 12.5 mg/kg/injection, schedule: Q01DX009 (ip), vehicle: saline with Tween-80 107 % of control | [19] 97 % of control | [16] 94 % of control | [17] 97 % of control | [18] 100 % of control

O=C(O)c1cc(=O)cc(C(=O)O)o1
inactive: [19] 91 % of control | dose: 50.0 mg/kg/injection, schedule: Q01DX009 (ip), vehicle: Klucel (hydroxypropylcellulose) (HPC) 91 % of control | dose: 50.0 mg/kg/injection, schedule: Q01DX009 (ip), vehicle: saline with Tween-80 90 % of control | dose: 100.0 mg/kg/injection, schedule: Q01DX009 (ip), vehicle: Klucel (hydroxypropylcellulose) (HPC) 91 % of control | [9] 95 % of control

COc1ccccc1NC(=O)Nc1ccc(Cl)cc1OC
inactive: [12] 87 % of control | [13] 94 % of control | [14] 97 % of control

CC(=O)Oc1ccc2c3c(ccc2c1)C1CCC(=O)C1(C)CC3 (stereo unspecified)
inactive: [16] 97 % of control | [17] 92 % of control | [18] 97 % of control

CC(N)(CCOCc1ccccc1)C(=O)O (stereo unspecified)
inactive: [7] 97 % of control | [9] 103 % of control | [8] 96 % of control | [10] 101 % of control | [15] 103 % of control | [11] 101 % of control

Cn1c(=O)cc(C=Nc2ccc(S(N)(=O)=O)cc2)c2ccccc21
inactive: [9] 90 % of control | [10] 89 % of control | [11] 89 % of control
